Results from the NIST ThermoML archive (doi:10.1021/je4004806).
± gives the expanded uncertainty stated by the source.

Columns and labels:
[1] = 101 kPa, Liquid; for viscosity: Capillary tube (Ostwald / Ubbelohde) method; for mass density: Vibrating tube method
[2] = xn = mol fraction of the nth substance listed; conditions: 101 kPa, Liquid; for viscosity: Capillary tube (Ostwald / Ubbelohde) method; for mass density: Vibrating tube method

CCCCO [butan-1-ol]
[1]
Conditions | mass density [kg/m3] | viscosity [mPa·s]
293.15 K | 809.53 ± 0.12 | 2.968 ± 0.017
298.15 K | 805.7 ± 0.12 | 2.602 ± 0.016
303.15 K | 801.86 ± 0.12 | 2.292 ± 0.015
308.15 K | 797.99 ± 0.12 | 2.025 ± 0.013
313.15 K | 794.1 ± 0.12 | 1.796 ± 0.013
318.15 K | 790.18 ± 0.12 | 1.59 ± 0.012
323.15 K | 786.21 ± 0.13 | 1.414 ± 0.011

CCCCO [butan-1-ol] + CCCCCCCC
[2], x2 = 0
Conditions | mass density [kg/m3] | viscosity [mPa·s]
293.15 K | 809.53 ± 0.12 | 2.968 ± 0.017
298.15 K | 805.7 ± 0.12 | 2.602 ± 0.016
303.15 K | 801.86 ± 0.12 | 2.292 ± 0.015
308.15 K | 797.99 ± 0.12 | 2.025 ± 0.013
313.15 K | 794.1 ± 0.12 | 1.796 ± 0.013
318.15 K | 790.18 ± 0.12 | 1.59 ± 0.012
323.15 K | 786.21 ± 0.13 | 1.414 ± 0.011

CCO [ethanol]
[1]
Conditions | mass density [kg/m3]
293.15 K | 790.91 ± 0.12
298.15 K | 786.6 ± 0.12
303.15 K | 782.28 ± 0.12
308.15 K | 777.94 ± 0.13
313.15 K | 773.56 ± 0.13
318.15 K | 769.15 ± 0.13
323.15 K | 764.69 ± 0.13

CCO [ethanol] + CCCCCCCC
[2], x2 = 0
Conditions | mass density [kg/m3]
293.15 K | 790.91 ± 0.12
298.15 K | 786.6 ± 0.12
303.15 K | 782.28 ± 0.12
308.15 K | 777.94 ± 0.13
313.15 K | 773.56 ± 0.13
318.15 K | 769.15 ± 0.13
323.15 K | 764.69 ± 0.13

CCCCCCCC [octane]
[1]
Conditions | mass density [kg/m3] | viscosity [mPa·s]
293.15 K | 702.54 ± 0.15 | 0.545 ± 0.009
298.15 K | 698.49 ± 0.15 | 0.513 ± 0.009
303.15 K | 694.44 ± 0.16 | 0.485 ± 0.009
308.15 K | 690.37 ± 0.16 | 0.459 ± 0.009
313.15 K | 686.29 ± 0.16 | 0.433 ± 0.009
318.15 K | 682.19 ± 0.16 | 0.412 ± 0.008
323.15 K | 678.08 ± 0.16 | 0.392 ± 0.008

CCCCCCCC [octane] + CCCCCO
[2], x1 = 1
Conditions | mass density [kg/m3] | viscosity [mPa·s]
293.15 K | 702.54 ± 0.15 | 0.545 ± 0.009
298.15 K | 698.49 ± 0.15 | 0.513 ± 0.009
303.15 K | 694.44 ± 0.16 | 0.485 ± 0.009
308.15 K | 690.37 ± 0.16 | 0.459 ± 0.009
313.15 K | 686.29 ± 0.16 | 0.433 ± 0.009
318.15 K | 682.19 ± 0.16 | 0.412 ± 0.008
323.15 K | 678.08 ± 0.16 | 0.392 ± 0.008

CCCCCCCC [octane] + CCO
mass density [kg/m3], [2]
Conditions | x1 = 0.1008 | x1 = 0.2015 | x1 = 0.2998 | x1 = 0.4008 | x1 = 0.4663 | x1 = 0.6008 | x1 = 0.6991 | x1 = 0.7931 | x1 = 0.9031 | x1 = 1
293.15 K | 766.88 ± 0.81 | 750.57 ± 0.58 | 738.83 ± 0.44 | 729.83 ± 0.36 | 724.97 ± 0.3 | 716.77 ± 0.27 | 712.03 ± 0.23 | 708.31 ± 0.21 | 704.73 ± 0.19 | 702.54 ± 0.15
298.15 K | 762.56 ± 0.81 | 746.27 ± 0.58 | 734.53 ± 0.44 | 725.55 ± 0.37 | 720.68 ± 0.29 | 712.52 ± 0.27 | 707.81 ± 0.23 | 704.12 ± 0.21 | 700.59 ± 0.19 | 698.49 ± 0.15
303.15 K | 758.23 ± 0.81 | 741.94 ± 0.58 | 730.2 ± 0.44 | 721.22 ± 0.37 | 716.37 ± 0.29 | 708.23 ± 0.27 | 703.55 ± 0.23 | 699.9 ± 0.21 | 696.43 ± 0.19 | 694.44 ± 0.16
308.15 K | 753.87 ± 0.81 | 737.57 ± 0.58 | 725.83 ± 0.44 | 716.86 ± 0.37 | 712.02 ± 0.29 | 703.91 ± 0.27 | 699.27 ± 0.23 | 695.65 ± 0.21 | 692.24 ± 0.19 | 690.37 ± 0.16
313.15 K | 749.47 ± 0.81 | 733.15 ± 0.58 | 721.42 ± 0.44 | 712.46 ± 0.37 | 707.63 ± 0.29 | 699.56 ± 0.27 | 694.94 ± 0.23 | 691.37 ± 0.21 | 688.03 ± 0.19 | 686.29 ± 0.16
318.15 K | 745.03 ± 0.81 | 728.69 ± 0.58 | 716.96 ± 0.44 | 708 ± 0.37 | 703.19 ± 0.29 | 695.15 ± 0.27 | 690.58 ± 0.23 | 687.05 ± 0.21 | 683.78 ± 0.19 | 682.19 ± 0.16
323.15 K | 740.54 ± 0.82 | 724.18 ± 0.58 | 712.45 ± 0.44 | 703.5 ± 0.36 | 698.69 ± 0.3 | 690.7 ± 0.27 | 686.17 ± 0.23 | 682.7 ± 0.21 | 679.51 ± 0.18 | 678.08 ± 0.16

CCCCCO [pentan-1-ol]
[1]
Conditions | mass density [kg/m3] | viscosity [mPa·s]
293.15 K | 814.59 ± 0.11 | 4.042 ± 0.022
298.15 K | 810.93 ± 0.12 | 3.518 ± 0.02
303.15 K | 807.24 ± 0.12 | 3.06 ± 0.018
308.15 K | 803.53 ± 0.12 | 2.659 ± 0.016
313.15 K | 799.79 ± 0.12 | 2.334 ± 0.015
318.15 K | 796.03 ± 0.12 | 2.042 ± 0.013
323.15 K | 792.23 ± 0.12 | 1.805 ± 0.013

CCCO [propan-1-ol]
[1]
Conditions | mass density [kg/m3] | viscosity [mPa·s]
293.15 K | 803.84 ± 0.12 | 2.21 ± 0.014
298.15 K | 799.85 ± 0.12 | 1.962 ± 0.013
303.15 K | 795.81 ± 0.12 | 1.746 ± 0.012
308.15 K | 791.74 ± 0.12 | 1.556 ± 0.012
313.15 K | 787.64 ± 0.13 | 1.386 ± 0.011
318.15 K | 783.55 ± 0.13 | 1.242 ± 0.011
323.15 K | 779.32 ± 0.13 | 1.115 ± 0.01

CCCO [propan-1-ol] + CCCCCCCC
[2], x2 = 0
Conditions | mass density [kg/m3] | viscosity [mPa·s]
293.15 K | 803.84 ± 0.12 | 2.21 ± 0.014
298.15 K | 799.85 ± 0.12 | 1.962 ± 0.013
303.15 K | 795.81 ± 0.12 | 1.746 ± 0.012
308.15 K | 791.74 ± 0.12 | 1.556 ± 0.012
313.15 K | 787.64 ± 0.13 | 1.386 ± 0.011
318.15 K | 783.55 ± 0.13 | 1.242 ± 0.011
323.15 K | 779.32 ± 0.13 | 1.115 ± 0.01
